Source: ChEMBL document CHEMBL3885881, “DrugMatrix”

Species on record: Rattus norvegicus
Experiment: DrugMatrix - Regimen: Daily Repeat
Assay type: toxicity, organism-based, Sprague-Dawley
Design: regimen Daily Repeat, gender Male, age 6-8 weeks
Settings: in vivo, po, 1200 mg/kg, route oral GAVAGE, dose level High, vehicle 100 % WATER; for ABSOLUTE BASOPHIL / ABSOLUTE EOSINOPHIL / ABSOLUTE LYMPHOCYTE / ABSOLUTE MONOCYTE / ABSOLUTE SEGMENTED NEUTROPHIL / BASOPHIL / EOSINOPHIL / ERYTHROCYTE COUNT / HEMATOCRIT / HEMOGLOBIN / LEUKOCYTE COUNT / LYMPHOCYTE / MEAN CORPUSCULAR HEMOGLOBIN / MEAN CORPUSCULAR HEMOGLOBIN CONCENTRATION / MEAN CORPUSCULAR VOLUME / MONOCYTE / NEUTROPHIL / NUCLEATED RED BLOOD CELLS / PLATELET COUNT: tissue Blood; for ALANINE AMINOTRANSFERASE / ALBUMIN / ALKALINE PHOSPHATASE / ASPARTATE AMINOTRANSFERASE / BLOOD UREA NITROGEN / CARBON DIOXIDE / CHLORIDE / CHOLESTEROL / CREATINE PHOSPHOKINASE / CREATININE / GLUCOSE / LACTATE DEHYDROGENASE / LIPASE / PHOSPHORUS / POTASSIUM / SODIUM / TOTAL BILIRUBIN / TOTAL PROTEIN / URIC ACID: tissue Plasma

For CCC1(C)CC(=O)NC1=O (stereo unspecified) [ETHOSUXIMIDE], the “ABSOLUTE BASOPHIL” value (72 h, time 3 day) was 0 CELLS/uL, the “ABSOLUTE EOSINOPHIL” value (72 h, time 3 day) was 0 CELLS/uL and the “ABSOLUTE LYMPHOCYTE” value (72 h, time 3 day) was 11632.67 CELLS/uL. The “ABSOLUTE MONOCYTE” value (72 h, time 3 day) was 44.67 CELLS/uL, the “ABSOLUTE SEGMENTED NEUTROPHIL” value (72 h, time 3 day) was 722.67 CELLS/uL and the BASOPHIL (72 h, time 3 day) was 0%. The EOSINOPHIL (72 h, time 3 day) was 0%, the “ERYTHROCYTE COUNT” value (72 h, time 3 day) was 5.96 x10E6/uL and the HEMATOCRIT (72 h, time 3 day) was 38.63%. The HEMOGLOBIN (72 h, time 3 day) was 15.43 G/DL, the “LEUKOCYTE COUNT” value (72 h, time 3 day) was 12.4 x10E3/uL and the LYMPHOCYTE (72 h, time 3 day) was 94%. The “MEAN CORPUSCULAR HEMOGLOBIN” value (72 h, time 3 day) was 26 pg, the “MEAN CORPUSCULAR HEMOGLOBIN CONCENTRATION” value (72 h, time 3 day) was 40 G/DL and the “MEAN CORPUSCULAR VOLUME” value (72 h, time 3 day) was 65 fL. For the same molecule, the MONOCYTE (72 h, time 3 day) was 0.33%, the NEUTROPHIL (72 h, time 3 day) was 5.67% and the “NUCLEATED RED BLOOD CELLS” value (72 h, time 3 day) was 0 /100WBC. For the same molecule, the “PLATELET COUNT” value (72 h, time 3 day) was 1151 x10E3/uL, the “ALANINE AMINOTRANSFERASE” value (72 h, time 3 day) was 70.67 u/L and the ALBUMIN (72 h, time 3 day) was 4.4 G/DL. For the same molecule, the “ALKALINE PHOSPHATASE” value (72 h, time 3 day) was 269.67 u/L, the “ASPARTATE AMINOTRANSFERASE” value (72 h, time 3 day) was 95 u/L and the “BLOOD UREA NITROGEN” value (72 h, time 3 day) was 16.33 mg/dL. For the same molecule, the “CARBON DIOXIDE” value (72 h, time 3 day) was 28.67 mmol/L, the CHLORIDE (72 h, time 3 day) was 97 MEQ/L and the CHOLESTEROL (72 h, time 3 day) was 100.67 mg/dL. For the same molecule, the “CREATINE PHOSPHOKINASE” value (72 h, time 3 day) was 183.67 u/L, the CREATININE (72 h, time 3 day) was 0.14 mg/dL and the GLUCOSE (72 h, time 3 day) was 133 mg/dL. For the same molecule, the “LACTATE DEHYDROGENASE” value (72 h, time 3 day) was 123 u/L, the LIPASE (72 h, time 3 day) was 10.67 u/L and the PHOSPHORUS (72 h, time 3 day) was 12.53 mg/dL. For the same molecule, the POTASSIUM (72 h, time 3 day) was 7.49 MEQ/L, the SODIUM (72 h, time 3 day) was 140.33 MEQ/L and the “TOTAL BILIRUBIN” value (72 h, time 3 day) was 0.2 mg/dL. The “TOTAL PROTEIN” value (72 h, time 3 day) was 5.97 G/DL, the “URIC ACID” value (72 h, time 3 day) was 1.9 mg/dL and the “ABSOLUTE BASOPHIL” value (120 h, time 5 day) was 0 CELLS/uL. The “ABSOLUTE EOSINOPHIL” value (120 h, time 5 day) was 57.67 CELLS/uL, the “ABSOLUTE LYMPHOCYTE” value (120 h, time 5 day) was 11720.67 CELLS/uL and the “ABSOLUTE MONOCYTE” value (120 h, time 5 day) was 238.33 CELLS/uL. The “ABSOLUTE SEGMENTED NEUTROPHIL” value (120 h, time 5 day) was 2116.67 CELLS/uL, the BASOPHIL (120 h, time 5 day) was 0% and the EOSINOPHIL (120 h, time 5 day) was 0.33%. For the same molecule, the “ERYTHROCYTE COUNT” value (120 h, time 5 day) was 6.03 x10E6/uL, the HEMATOCRIT (120 h, time 5 day) was 37.47% and the HEMOGLOBIN (120 h, time 5 day) was 14.97 G/DL. For the same molecule, the “LEUKOCYTE COUNT” value (120 h, time 5 day) was 14.13 x10E3/uL, the LYMPHOCYTE (120 h, time 5 day) was 83% and the “MEAN CORPUSCULAR HEMOGLOBIN” value (120 h, time 5 day) was 24.8 pg. The “MEAN CORPUSCULAR HEMOGLOBIN CONCENTRATION” value (120 h, time 5 day) was 39.97 G/DL, the “MEAN CORPUSCULAR VOLUME” value (120 h, time 5 day) was 62.07 fL and the MONOCYTE (120 h, time 5 day) was 1.67%. For the same molecule, the NEUTROPHIL (120 h, time 5 day) was 15%, the “NUCLEATED RED BLOOD CELLS” value (120 h, time 5 day) was 0 /100WBC and the “PLATELET COUNT” value (120 h, time 5 day) was 1343 x10E3/uL. The “ALANINE AMINOTRANSFERASE” value (120 h, time 5 day) was 98.67 u/L, the ALBUMIN (120 h, time 5 day) was 4.7 G/DL and the “ALKALINE PHOSPHATASE” value (120 h, time 5 day) was 209.33 u/L. For the same molecule, the “ASPARTATE AMINOTRANSFERASE” value (120 h, time 5 day) was 133.67 u/L, the “BLOOD UREA NITROGEN” value (120 h, time 5 day) was 15 mg/dL and the “CARBON DIOXIDE” value (120 h, time 5 day) was 25.67 mmol/L. The CHLORIDE (120 h, time 5 day) was 96.67 MEQ/L, the CHOLESTEROL (120 h, time 5 day) was 108 mg/dL and the “CREATINE PHOSPHOKINASE” value (120 h, time 5 day) was 425.33 u/L. The CREATININE (120 h, time 5 day) was 0.16 mg/dL, the GLUCOSE (120 h, time 5 day) was 121 mg/dL and the “LACTATE DEHYDROGENASE” value (120 h, time 5 day) was 480.67 u/L. It also gave an LIPASE (120 h, time 5 day) of 10.67 u/L, a PHOSPHORUS (120 h, time 5 day) of 11.4 mg/dL and a POTASSIUM (120 h, time 5 day) of 6.59 MEQ/L. The SODIUM (120 h, time 5 day) was 141.93 MEQ/L, the “TOTAL BILIRUBIN” value (120 h, time 5 day) was 0.13 mg/dL and the “TOTAL PROTEIN” value (120 h, time 5 day) was 6.37 G/DL. For the same molecule, the “URIC ACID” value (120 h, time 5 day) was 1.63 mg/dL.
